Test results published in patent US20260216239A1 (Arizona Board of Regents on Behalf of the University of …, priority 2020, published 2026).
Where two headings read alike, the source gives them in different places.

Experiments:
acute kidney injury = settings: up to 30 mg/kg of CORM-2; cited from earlier work
human plasma = assay type: biochemical
Procedure: Given that the only compounds present with anions different from RuCl3 potentially available to displace Cl in the PBS used was KH2PO4 (1.5 mM) and Na2HPO4 (8.1 mM), a comparison of the effects of 1 and 10 μM RuCl3 (final concentration) dissolved in dH2O or PBS was performed in plasma as a 1% addition (v/v) with coagulation assessed via thrombelastography.
The volumes of subsequently described plasmatic and other additives summed to a final volume of 360 μL. Samples were composed of 320 μL of plasma; 16.4 μL of PBS, 20 μL of 200 mM CaCl2), and 3.6 μL of PBS, RuCl3, or venom solution mixture, which were pipetted into a disposable cup in a Thrombelastograph® hemostasis system (Model 5000, Haemonetics Inc., Braintree, MA, USA) at 37° C., and then rapidly mixed by moving the cup up against and then away from the plastic pin five times. The PBS, RuCl3, or venom solution mixtures was always the last constituent added prior to mixing and data collection. The following viscoelastic parameters described previously (see, Nielsen, V. G.; et al., Biometals 2016, 29, 913-919; Nielsen, V. G.; Losada, P. A. Basic Clin. Pharmacol. Toxicol. 2017, 120, 207-212; Nielsen, V. G.; Frank, N. J. Thromb. Thrombolysis 2019, 47, 533-539; Nielsen, V. G.; Bazzell, C. M. J. Thromb. Thrombolysis 2017, 43, 203-208; Nielsen, V. G.; Matika, R. W. Hum. Exp. Toxicol. 2017, 36, 727-733; Nielsen, V. G.; et al., Toxins 2018, 10, 322; Nielsen, V. G.; et al., Biometals 2018, 31, 51-59; Nielsen, V. G.; Frank, N. et al., Biometals 2018, 31, 951-959; Nielsen, V. G.; et al., Toxins 2019, 11, 94; Nielsen, V. G.; Frank, N. Hum Exp. Toxicol. 2019, 38, 216-226; Nielsen, V. G. J. Thromb. Thrombolysis 2019, 48, 256-262; Nielsen, V. G.; et al., Blood Coagul. Fibrinolysis 2019, 30, 379-384; Nielsen, V. G. J. Thromb. Thrombolysis 2019, 47, 73-79) were measured: time to maximum rate of thrombus generation (TMRTG): this is the time interval (minutes) observed prior to maximum speed of clot growth; maximum rate of thrombus generation (MRTG): this is the maximum velocity of clot growth observed (dynes/cm^2/s); and total thrombus generation (TTG, dynes/cm^2), the final viscoelastic resistance observed after clot formation. Data were collected until the clot strength reached its final plateau (maximum amplitude) that was stable for 3 min.
Thus, experiments wherein RuCl3 was dissolved in either dH2O or PBS were conducted with the final concentration of RuCl3 in plasma being 1 or 10 μM. Data were collected until maximum amplitude was observed.
Specific volumes of subsequently described plasma and chemical additives varied by condition but summated to 360 μl. Sample composition consisted of 320 μl of plasma; 16.4 μl of PBS, 20 μl of 200 mM CaCl2, and 3.6 μl of one of five subsequently described solutions, which were placed into a disposable cup in a computer-controlled Thrombelastograph® hemostasis system (Model 5000, Haemonetics Inc., Braintree, MA, USA) at 37° C., and then rapidly mixed by moving the cup up against and then away from the plastic pin five times before leaving the mixture between the cup and pin.

[1] = 10 vs 1 μM RuCl3 (final) dissolved in PBS
[2] = 10 vs 1 μM RuCl3 (final) dissolved in dH2O

SMILES	protection against acute kidney injury (acute kidney injury)	tolerability (acute kidney injury)	increase in MRTG values (human plasma)	maximum rate of thrombus generation (MRTG) (human plasma; 1 μM RuCl3 dissolved in PBS vs control conditions, preliminary investigation)	total thrombus generation (TTG) (human plasma; 1 and 10 μM RuCl3 in dH2O or PBS, interaction of RuCl3 and fluid)	maximum rate of thrombus generation (MRTG) (human plasma; [1])	time to maximum rate of thrombus generation (TMRTG) (human plasma; [1])	maximum rate of thrombus generation (MRTG) (human plasma; [2])	time to maximum rate of thrombus generation (TMRTG) (human plasma; [2])	plasmatic TMRTG or TTG values (human plasma; RuCl3 1 μM final in water or PBS vs plasma without RuCl3)
[C-]#[O+].[C-]#[O+].[C-]#[O+].[C-]#[O+].[C-]#[O+].[C-]#[O+].[Cl][Ru][Cl].[Cl][Ru][Cl] [CORM-2, tricarbonyldichlororuthenium(II) dimer]	protected against injury	well tolerated								
[Cl][Ru]([Cl])[Cl] [RuCl3, ruthenium(III) chloride]			37-61%	increased	decreased	increase	significantly decrease	increase	significant decrease	no significant differences
